Results from publication PMC10376064, “ABC Transporter C1 Prevents Dimethyl Fumarate from Targeting Alzheimer’s Disease” (Biology, 2023).

Molecular target: T1, ABCC1 (Homo sapiens, UniProt P33527)
T1 construct: membrane preparation of ABCC1-expressing H69AR cells
Assay: vanadate-sensitive ATPase stimulation in H69AR membranes; daunorubicin and rhodamine […] transport inhibition in H69AR cells
Format: cell-based

T1 sequence (P33527 whole entry): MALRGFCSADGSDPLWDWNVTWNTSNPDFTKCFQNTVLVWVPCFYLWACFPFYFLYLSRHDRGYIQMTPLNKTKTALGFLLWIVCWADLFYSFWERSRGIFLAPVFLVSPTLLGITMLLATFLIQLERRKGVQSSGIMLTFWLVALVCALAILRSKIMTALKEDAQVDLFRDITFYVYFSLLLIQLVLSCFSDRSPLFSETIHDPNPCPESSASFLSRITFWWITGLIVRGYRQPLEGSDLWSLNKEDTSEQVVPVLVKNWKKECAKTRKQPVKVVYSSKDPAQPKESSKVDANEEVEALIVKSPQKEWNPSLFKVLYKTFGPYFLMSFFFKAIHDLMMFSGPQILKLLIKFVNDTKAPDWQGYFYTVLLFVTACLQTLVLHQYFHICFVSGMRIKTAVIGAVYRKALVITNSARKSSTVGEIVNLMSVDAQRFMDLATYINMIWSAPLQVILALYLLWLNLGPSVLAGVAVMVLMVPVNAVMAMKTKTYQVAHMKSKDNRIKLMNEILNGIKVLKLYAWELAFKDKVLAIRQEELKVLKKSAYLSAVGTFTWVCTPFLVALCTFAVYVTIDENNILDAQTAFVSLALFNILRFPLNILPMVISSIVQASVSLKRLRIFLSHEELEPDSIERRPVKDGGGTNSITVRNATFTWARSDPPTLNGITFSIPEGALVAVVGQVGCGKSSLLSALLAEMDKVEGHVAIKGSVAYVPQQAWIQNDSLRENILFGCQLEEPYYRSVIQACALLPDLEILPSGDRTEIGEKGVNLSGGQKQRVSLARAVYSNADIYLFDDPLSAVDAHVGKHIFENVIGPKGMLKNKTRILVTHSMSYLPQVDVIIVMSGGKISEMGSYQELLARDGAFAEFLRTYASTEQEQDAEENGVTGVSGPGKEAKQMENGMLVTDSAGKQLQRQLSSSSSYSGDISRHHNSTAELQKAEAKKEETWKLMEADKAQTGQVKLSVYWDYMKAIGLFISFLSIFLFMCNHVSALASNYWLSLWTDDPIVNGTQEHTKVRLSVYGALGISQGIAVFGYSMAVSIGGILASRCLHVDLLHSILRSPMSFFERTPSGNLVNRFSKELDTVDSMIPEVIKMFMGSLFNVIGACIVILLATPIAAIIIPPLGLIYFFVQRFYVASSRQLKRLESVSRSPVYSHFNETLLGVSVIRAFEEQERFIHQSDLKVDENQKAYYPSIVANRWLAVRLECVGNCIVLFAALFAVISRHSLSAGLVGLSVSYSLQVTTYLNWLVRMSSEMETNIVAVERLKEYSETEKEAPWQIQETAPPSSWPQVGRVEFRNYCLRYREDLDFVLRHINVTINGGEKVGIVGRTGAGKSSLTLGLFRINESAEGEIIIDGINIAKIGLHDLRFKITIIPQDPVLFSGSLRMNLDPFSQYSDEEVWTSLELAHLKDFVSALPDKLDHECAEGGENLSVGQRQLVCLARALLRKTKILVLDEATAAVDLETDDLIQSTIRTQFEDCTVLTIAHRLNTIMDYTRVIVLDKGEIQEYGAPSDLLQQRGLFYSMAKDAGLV

With `COC(=O)CC(SC[C@H](NC(=O)CC[C@H](N)C(=O)O)C(=O)NCC(=O)O)C(=O)OC` (stereo partly shown) [compound 9, DMS-SG] the “vanadate-sensitive ATPase stimulation in H69AR membranes; daunorubicin and rhoda” value was ~ 200 µM.
